Results taken from patent US6727245B2, “Heterobicyclic derivatives” (Fujisawa Pharmaceutical Co., Ltd., priority 1994, dated 2004).

Row | melting point | SMILES
1 | 227 to 232 °C | O=C(Nc1cccc(-n2c(=O)c(Cc3cccnc3)nc3cccnc32)c1)Oc1ccccc1
2 | 143 to 153 °C (dec.) | COc1ccccc1NC(=O)Nc1cccc(-n2c(=O)c(CCC(=O)O)nc3cccnc32)c1 [Example 16(12), 2-(2-Carboxyethyl)-3-oxo-4-[3-[3-(2-methoxyphenyl)-ureido]phenyl]-3,4-dihydropyrido[2,3-b]pyrazine]
3 | 220 to 221 °C | COc1ccccc1NC(=O)Nc1cccc(-n2c(=O)c(Cc3ccc(O)cc3)nc3cccnc32)c1 [Example 16(13), 2-(4-Hydroxyphenylmethyl)-3-oxo-4-[3-[3-(2-methoxyphenyl)ureido]phenyl]-3,4-dihydropyrido-[2,3-b]pyrazine]
4 | 200 to 208 °C (dec.) | COc1ccccc1NC(=O)Nc1cccc(-n2c(=O)c(Cc3ccccc3[N+](=O)[O-])nc3cccnc32)c1 [Example 16(14), 2-(2-Nitrophenylmethyl)-3-oxo-4-[3-[3-(2-methoxyphenyl)ureido]phenyl]-3,4-dihydropyrido[2,3-b]pyrazine]
5 | 264 to 269 °C (dec.) | CC(=O)Nc1cccc(-n2c(=O)c(CCC(=O)O)nc3cccnc32)c1 [Example 16(15), 4-(3-Acetamidophenyl)-2-(2-carboxyethyl)-3-oxo-3,4-dihydropyrido[2,3-b]pyrazine]
6 | 212 to 214 °C | CCOc1ccc2nc(Cc3ccccc3)c(=O)n(-c3cccc(NC(C)=O)c3)c2n1 [Example 16(16), 4-(3-Acetamidophenyl)-2-benzyl-6-ethoxy-3-oxo-3,4-dihydropyrido[2,3-b]pyrazine]
7 | 235 to 237 °C | COc1ccccc1NC(=O)Nc1cccc(-n2c(=O)c(CCC(=O)ON3C(=O)CCC3=O)nc3cccnc32)c1 [Example 23, 4-[3-[3-(2-methoxyphenyl)ureido]-phenyl]-3-oxo-2-[2-succinimidooxycarbonylethyl)-3,4-dihydropyrido[2,3-b]pyrazine]
8 | 242 to 245 °C | COc1ccccc1NC(=O)Nc1cccc(-n2c(=O)c(CCC(=O)N(C)C)nc3cccnc32)c1 [Example 24, 2-[2-(N,N-dimethylcarbamoyl)ethyl]-3-oxo-4-[3-[3-(2-methoxyphenyl)-ureido]phenyl]-3,4-dihydropyrido[2,3-b]pyrazine]
9 | 175 °C | CCOC(=O)CCc1nc2cccnc2n(-c2cccc(NC(=O)Nc3ccccc3OC)c2)c1=O [Example 33, 2-(2-ethoxycarbonylethyl)-3-oxo-4-[3-[3-(2-methoxyphenyl)-ureido]phenyl]-3,4-dihydropyrido[2,3-b]pyrazine]
10 | 161 to 163 °C | CCCOC(=O)CCc1nc2cccnc2n(-c2cccc(NC(=O)Nc3ccccc3OC)c2)c1=O [Example 34(1), 4-[3-[3-(2-Methoxyphenyl)ureido]phenyl]-3-oxo-2-(2-propyloxycarbonylethyl)-3,4-dihydropyrido[2,3-b]-pyrazine]
11 | 194 to 196 °C | COC(=O)CCc1nc2cccnc2n(-c2cccc(NC(=O)Nc3ccccc3OC)c2)c1=O [Example 34(2), 2-(2-Methoxycarbonylethyl)-3-oxo-4-[3-[3-(2-methoxyphenyl)ureido]phenyl]-3,4-dihydropyrido-[2,3-b]pyrazine]
12 | 195 to 197 °C | COc1ccccc1NC(=O)Nc1cccc(-n2c(=O)c(CCC(=O)N3CCN(C)CC3)nc3cccnc32)c1 [Example 35, 4-[3-[3-(2-methoxyphenyl)ureido]phenyl]-2-[2-(4-methylpiperazin-1-yl)carbonylethyl]-3-oxo-3,4-dihydropyrido[2,3-b]pyrazine]
13 | 209 to 212 °C | COC(=O)[C@@H]1CCCN1C(=O)CCc1nc2cccnc2n(-c2cccc(NC(=O)Nc3ccccc3OC)c2)c1=O [Example 36, 4-[3-[3-(2-Methoxyphenyl)ureido]phenyl]-3-oxo-2-[2[(2S)-2-methoxycarbonylpyrrolidin-1-yl]carbonylethyl]-3,4-dihydropyrido[2,3-b]pyrazine]
14 | 264 to 268 °C | O=C(Nc1ccc(F)c(-n2c(=O)c(Cc3cccnc3)nc3cccnc32)c1)c1ccc2ccccc2c1 [Example 41(20), 4-[2-Fluoro-5-(2-naphthoylamino)phenyl]-2-(3-pyridylmethyl)-3-oxo-3,4-dihydropyrido[2,3-b]pyrazine]
15 | 155 to 156 °C | O=c1c(Cc2cccnc2)nc2cccnc2n1-c1cccc(-c2ccc3ccccc3c2)c1 [Example 43, 4-[3-(2-naphthyl)phenyl]-2-(3-pyridylmethyl)-3-oxo-3,4-dihydropyrido[2,3-b]pyrazine]
16 | 238 to 239 °C | COc1ccccc1NC(=O)Nc1cccc(-n2c(=O)c(Cc3ccccc3)nc3cccnc32)c1 [Example 45(6), 2-Benzyl-4-[3-[3-(2-methoxyphenyl)ureido]phenyl]-3-oxo-3,4-dihydropyrido[2,3-b]pyrazine]
17 | 165 to 166 °C | N#Cc1cccn1-c1cccc(-n2c(=O)c(Cc3ccccc3)nc3cccnc32)c1 [Example 45(7), 2-Benzyl-4-[3-(2-cyanopyrrol-1-yl)phenyl]-3-oxo-3,4-dihydropyrido[2,3-b]pyrazine]
18 | 197 to 198 °C | O=c1c(Cc2ccccc2)nc2cccnc2n1-c1cccc(-c2nc3ccccc3s2)c1 [Example 45(8), 2-Benzyl-4-[3-(benzothiazol-2-yl)phenyl]-3-oxo-3,4-dihydropyrido[2,3-b]pyrazine]

Row | melting point | SMILES
19 | 154 to 155 °C | O=C(c1ccccc1)c1cccc(-n2c(=O)c(Cc3ccccc3)nc3cccnc32)c1 [Example 45(9), 2-Benzyl-4-(3-benzoylphenyl)-3-oxo-3,4-dihydropyrido[2,3-b]pyrazine]
20 | 125 to 127 °C | O=c1c(Cc2ccccc2)nc2cccnc2n1-c1cccc(C(F)(F)F)c1 [Example 45(10), 2-Benzyl-4-(3-trifluoromethylphenyl)-3-oxo-3,4-dihydropyrido[2,3-b]pyrazine]
21 | 157 to 159 °C | CC(=O)c1cn(-c2cccc(-n3c(=O)c(Cc4ccccc4)nc4cccnc43)c2)c2ccccc12 [Example 45(11), 2-Benzyl-4-[3-(3-acetylindol-1-yl)phenyl]-3-oxo-3,4-dihydropyrido[2,3-b]pyrazine]
22 | 208 to 210 °C | COC(=O)c1cccc(-n2c(=O)c(Cc3cccnc3)nc3cccnc32)c1 [Example 45(12), 4-(3-Methoxycarbonylphenyl)-2-(3-pyridylmethyl)-3-oxo-3,4-dihydropyrido[2,3-b]pyrazine]
23 | 128 to 130 °C | O=c1c(Cc2cccnc2)nc2cccnc2n1-c1cccc(-n2cccc2)c1 [Example 45(13), 4-[3-(1-Pyrrolyl)phenyl]-2-(3-pyridylmethyl)-3-oxo-3,4-dihydropyrido[2,3-b]pyrazine]
24 | 88 to 90 °C | O=c1c(Cc2cccnc2)nc2cccnc2n1-c1cccc(C(F)(F)F)c1 [Example 45(14), 4-(3-Trifluoromethylphenyl)-2-(3-pyridylmethyl)-3-oxo-3,4-dihydropyrido[2,3-b]pyrazine]
25 | 212 to 214 °C | CC(=O)Nc1ccc(F)c(-n2c(=O)c(Cc3cccnc3)nc3cccnc32)c1 [Example 45(15), 4-(5-Acetamido-2-fluorophenyl)-2-(3-pyridylmethyl)-3-oxo-3,4-dihydropyrido[2,3-b]pyrazine]
26 | 142 to 143 °C | O=C(c1ccccc1)c1cccc(-n2c(=O)c(Cc3cccnc3)nc3cccnc32)c1 [Example 45(16), 4-(3-Benzoylphenyl)-2-(3-pyridylmethyl)-3-oxo-3,4-dihydropyrido[2,3-b]pyrazine]
27 | 153 to 156 °C | CC(=O)c1cn(-c2cccc(-n3c(=O)c(Cc4cccnc4)nc4cccnc43)c2)c2ccccc12 [Example 45(17), 4-[3-(3-Acetylindol-1-yl)phenyl]-2-(3-pyridylmethyl)--3-oxo-3,4-dihydropyrido[2,3-b]pyrazine]
28 | 166 to 168 °C | O=c1c(Cc2cccnc2)nc2cccnc2n1-c1cccc(-n2ccc3ccccc32)c1 [Example 45(18), 4-[3-(1-Indolyl)phenyl]-2-(3-pyridylmethyl)-3-oxo-3,4-dihydropyrido[2,3-b]pyrazine]
29 | 162 to 165 °C | O=c1c(Cc2cccnc2)nc2cccnc2n1-c1cccc(-c2cccc3ccccc23)c1 [Example 45(19), 4-[3-(1-Naphthyl)phenyl]-2-(3-pyridylmethyl)-3-oxo-3,4-dihydropyrido[2,3-b]pyrazine]
30 | 168 to 170 °C | Nc1cccc(-n2c(=O)c(Cc3cccnc3)nc3cccnc32)c1 [Example 46, 4-(3-aminophenyl)-2-(3-pyridylmethyl)-3-oxo-3,4-dihydropyrido[2,3-b]pyrazine]
31 | 177 to 179 °C | Nc1ccc(F)c(-n2c(=O)c(Cc3cccnc3)nc3cccnc32)c1 [Example 47, 4-(5-Amino-2-fluorophenyl)-2-(3-pyridylmethyl)-3-oxo-3,4-dihydropyrido[2,3-b]pyrazine]
32 | 146 to 149 °C | O=C(Nc1ccc(F)c(-n2c(=O)c(Cc3cccnc3)nc3cccnc32)c1)Nc1ccccc1F [Example 50(1), 4-[2-Fluoro-5-[3-(2-fluorophenyl)ureido]phenyl]-2-(3-pyridylmethyl)-3-oxo-3,4-dihydropyrido[2,3-b]pyrazine]
33 | 152 to 155 °C | COc1ccccc1NC(=O)Nc1ccc(F)c(-n2c(=O)c(Cc3cccnc3)nc3cccnc32)c1 [Example 50(2), 4-[2-Fluoro-5-[3-(2-methoxyphenyl)ureido]phenyl]-2-(3-pyridylmethyl)-3-oxo-3,4-dihydropyrido[2,3-b]pyrazine]
34 | 188 to 189 °C | O=C(Nc1cccc(-n2c(=O)c(Cc3cccnc3)nc3cccnc32)c1)Nc1ccccc1[N+](=O)[O-] [Example 50(3), 4-[3-[3-(2-Nitrophenyl)ureido]phenyl]-2-(3-pyridylmethyl)-3-oxo-3,4-dihydropyrido[2,3-b]pyrazine]
35 | 163 to 169 °C | COc1ccccc1NC(=O)Nc1cccc(-n2c(=O)c(Cc3cccnc3)nc3cccnc32)c1 [Example 50(4), 4-[3-[3-(2-Methoxyphenyl)ureido]phenyl]-2-(3-pyridylmethyl)-3-oxo-3,4-dihydropyrido[2,3-b]pyrazine]
36 | 228 to 231 °C | COc1ccc2cc(-c3cccc(-n4c(=O)c(Cc5cccnc5)nc5cccnc54)c3)ccc2c1 [Example 54(24), 4-[3-(6-Methoxy-2-naphthyl)phenyl]-2-(3-pyridylmethyl)-3-oxo-3,4-dihydropyrido[2,3-b]pyrazine]
